Measurements reported in ChEMBL document CHEMBL5223155, “Design, synthesis, and evaluation of pyrido.[3,4-b]pyrazin-2(1H)-one derivatives as potent FLT3 inhibitors” (Bioorg Med Chem, 2023).
Calls of active or inactive are those of the source. No cut-off for these calls is given here.

Key:
[1] = biological target: Receptor-type tyrosine-protein kinase FLT3 (Homo sapiens, UniProt P36888, D835Y)
Description: Inhibition of human FLT3 D835Y mutant using TK peptide as substrate incubated for 1 hr in presence of ATP by HTRF assay

[2] = biological target: T1, Receptor-type tyrosine-protein kinase FLT3 (Homo sapiens, UniProt P36888)
T1 sequence (P36888 whole entry): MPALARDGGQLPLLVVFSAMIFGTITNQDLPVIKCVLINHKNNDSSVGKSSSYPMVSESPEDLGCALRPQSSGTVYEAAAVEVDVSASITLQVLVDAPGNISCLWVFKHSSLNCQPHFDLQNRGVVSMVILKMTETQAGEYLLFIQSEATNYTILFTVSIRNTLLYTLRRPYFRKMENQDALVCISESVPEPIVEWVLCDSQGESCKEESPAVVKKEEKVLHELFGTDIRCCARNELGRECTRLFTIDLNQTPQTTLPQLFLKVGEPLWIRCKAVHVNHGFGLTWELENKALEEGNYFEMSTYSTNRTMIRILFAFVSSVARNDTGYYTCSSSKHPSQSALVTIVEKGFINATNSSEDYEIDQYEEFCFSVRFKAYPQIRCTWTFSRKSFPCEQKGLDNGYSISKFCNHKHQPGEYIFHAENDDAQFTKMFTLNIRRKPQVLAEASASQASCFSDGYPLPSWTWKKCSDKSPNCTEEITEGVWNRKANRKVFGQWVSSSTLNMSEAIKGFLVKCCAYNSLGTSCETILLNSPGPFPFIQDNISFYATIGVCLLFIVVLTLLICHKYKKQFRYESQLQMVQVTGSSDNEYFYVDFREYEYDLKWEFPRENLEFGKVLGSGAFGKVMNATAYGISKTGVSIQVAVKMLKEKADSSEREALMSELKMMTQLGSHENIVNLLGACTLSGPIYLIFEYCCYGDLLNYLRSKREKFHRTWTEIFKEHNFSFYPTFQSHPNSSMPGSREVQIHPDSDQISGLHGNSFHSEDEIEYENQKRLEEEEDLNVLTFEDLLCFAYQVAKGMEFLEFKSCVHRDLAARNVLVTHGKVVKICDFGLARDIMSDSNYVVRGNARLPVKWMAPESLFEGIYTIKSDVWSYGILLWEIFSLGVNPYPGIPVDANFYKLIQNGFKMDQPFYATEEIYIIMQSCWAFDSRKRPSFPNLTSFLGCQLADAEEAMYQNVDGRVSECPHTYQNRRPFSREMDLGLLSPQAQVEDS
Description: Inhibition of human wild type FLT3 using TK peptide as substrate incubated for 1 hr in presence of ATP by HTRF assay

BaF3 [3] = experiment: cells; details: Mus musculus, BaF3, 72 h
Description: Antiproliferative activity against mouse BaF3 cells harboring FLT3-D835F mutant assessed as inhibition of cell growth incubated for 72 hrs by MTS assay

BaF3 [4] = experiment: cells; details: Mus musculus, BaF3, 72 h; remark: listed apart in the source
Description: Antiproliferative activity against mouse BaF3 cells harboring FLT3-D835V mutant assessed as inhibition of cell growth incubated for 72 hrs by MTS assay

MOLM-13 = experiment: Antiproliferative activity against human MOLM-13 cells assessed as inhibition of cell growth incubated for 72 hrs by MTS assay; assay type: functional, cell-based; details: MOLM-13, 72 h
MV4-11 = experiment: cells; details: Homo sapiens, MV4-11, 72 h
Description: Antiproliferative activity against human MV4-11 cells assessed as inhibition of cell growth incubated for 72 hrs by MTS assay

BaF3 [5] = experiment: cells; details: Mus musculus, BaF3, 72 h; remark: listed apart in the source
Description: Antiproliferative activity against mouse BaF3 cells harboring FLT3-F691L mutant assessed as inhibition of cell growth incubated for 72 hrs by MTS assay

BaF3 [6] = experiment: cells; details: Mus musculus, BaF3, 72 h; remark: listed apart in the source
Description: Antiproliferative activity against mouse BaF3 cells harboring FLT3-ITD mutant assessed as inhibition of cell growth incubated for 72 hrs by MTS assay

BaF3 [7] = experiment: cells; details: Mus musculus, BaF3, 72 h; remark: listed apart in the source
Description: Antiproliferative activity against mouse BaF3 cells harboring FLT3-ITD/D835Y mutant assessed as inhibition of cell growth incubated for 72 hrs by MTS assay

Rec1 = experiment: Antiproliferative activity against human REC1 cells assessed as inhibition of cell growth incubated for 72 hrs by MTS assay; assay type: functional, cell-based; details: Rec1, 72 h
[8] = Antiproliferative activity against human MINO cells assessed as inhibition of cell growth incubated for 72 hrs by MTS assay; assay type: functional, cell-based
JeKo-1 = experiment: Antiproliferative activity against human JeKo-1 cells assessed as inhibition of cell growth incubated for 72 hrs by MTS assay; assay type: functional, cell-based; details: JeKo-1, 72 h
[9] = biological target: Receptor-type tyrosine-protein kinase FLT3 (Homo sapiens) (UniProt P36888); experiment: Inhibition of FLT3 in human MV4-11 cells assessed as reduction in ERK phosphorylation at 100 nM by Western blotting analysis; assay type: cell-based
[10] = biological target: Receptor-type tyrosine-protein kinase FLT3 (Homo sapiens) (UniProt P36888); experiment: Inhibition of FLT3 in human MV4-11 cells assessed as reduction in STAT5 phosphorylation at 100 nM by Western blotting analysis; assay type: cell-based
RS4-11 = experiment: Antiproliferative activity against human RS4-11 cells assessed as inhibition of cell growth incubated for 72 hrs by MTS assay; assay type: functional, cell-based; details: RS4-11, 72 h
Z-138 = experiment: Antiproliferative activity against human Z138 cells assessed as inhibition of cell growth incubated for 72 hrs by MTS assay; assay type: functional, cell-based; details: Z-138, 72 h
[11] = biological target: Receptor-type tyrosine-protein kinase FLT3 (Homo sapiens) (UniProt P36888); experiment: Inhibition of FLT3 in human MV4-11 cells assessed as reduction in ERK phosphorylation by Western blotting analysis; assay type: cell-based; details: dose 10-1000 nM
MM1.S = experiment: Antiproliferative activity against human MM1.S cells assessed as inhibition of cell growth incubated for 72 hrs by MTS assay; assay type: functional, cell-based
[12] = biological target: Receptor-type tyrosine-protein kinase FLT3 (Homo sapiens) (UniProt P36888); experiment: Inhibition of FLT3 in human MV4-11 cells assessed as reduction in AKT phosphorylation by Western blotting analysis; assay type: cell-based; details: dose 10-1000 nM
OCI-AML-3 = experiment: Antiproliferative activity against human OCI-AML-3 cells assessed as inhibition of cell growth incubated for 72 hrs by MTS assay; assay type: functional, cell-based; details: OCI-AML-3, 72 h
KG-1 = experiment: Antiproliferative activity against human KG-1 cells assessed as inhibition of cell growth incubated for 72 hrs by MTS assay; assay type: functional, cell-based; details: KG-1, 72 h
WI-38 = experiment: Antiproliferative activity against human WI-38 cells assessed as inhibition of cell growth incubated for 72 hrs by MTS assay; assay type: functional, cell-based; details: WI-38, 72 h
MOLT-4 = experiment: Antiproliferative activity against human MOLT-4 cells assessed as inhibition of cell growth incubated for 72 hrs by MTS assay; assay type: functional, cell-based; details: MOLT-4, 72 h
HCC1954 = experiment: Antiproliferative activity against human HCC1954 cells assessed as inhibition of cell growth incubated for 72 hrs by MTS assay; assay type: functional, cell-based; details: HCC1954, 72 h
[13] = Metabolic stability in ICR/CD mouse liver microsomes assessed as compound remaining at 100 uM preincubated with NADPH for 5 mins followed by compound addition and measured upto 90 mins by LC-MS/MS method; assay type: ADME, Microsome; details: time < 95 min, read-out: Stability
[14] = biological target: Receptor-type tyrosine-protein kinase FLT3 (Homo sapiens) (UniProt P36888); experiment: Inhibition of FLT3 in human MV4-11 cells assessed as reduction in STAT5 phosphorylation by Western blotting analysis; assay type: cell-based; details: dose 10-1000 nM
HL-60 = experiment: Antiproliferative activity against human HL-60 cells assessed as inhibition of cell growth incubated for 72 hrs by MTS assay; assay type: functional, cell-based; details: HL-60, 72 h
[15] = Antiproliferative activity against human PBMCs assessed as inhibition of cell growth incubated for 72 hrs by MTS assay; assay type: toxicity, cell-based, PBMC
[16] = biological target: Receptor-type tyrosine-protein kinase FLT3 (Homo sapiens) (UniProt P36888); experiment: Inhibition of FLT3 in human MV4-11 cells assessed as reduction in FLT3 autophosphorylation at Tyr589/591 at 10 to 1000 nM by Western blotting analysis; assay type: cell-based; details: dose 10-1000 nM

CN1CCN(c2ccc(Nc3cc4c(cn3)ncc(=O)n4-c3ccc(N(C)C)cc3)nc2)CC1
IC50 [1]: 633 nM | IC50 [2]: 747 nM

CC(=O)Nc1ccc(-n2c(=O)cnc3cnc(Nc4ccc(N5CCN(C)CC5)cn4)cc32)cc1
IC50 [1]: 582 nM | IC50 [2]: 939 nM

Cc1cc(Nc2cc3c(cn2)ncc(=O)n3-c2ccc(N)cc2)ncc1N1C[C@@H](C)N[C@@H](C)C1
IC50 (BaF3 [3]): 689 nM | IC50 (BaF3 [4]): 70 nM | IC50 (MOLM-13): 191 nM | IC50 (MV4-11): 24 nM | IC50 (BaF3 [5]): 257 nM | IC50 (BaF3 [6]): 681 nM | IC50 [1]: 33 nM | IC50 [2]: 85 nM | IC50 (BaF3 [7]): 169 nM

Cc1cc(Nc2cc3c(cn2)ncc(=O)n3-c2ccc(N)cc2)ncc1N1CCNCC1
IC50 (BaF3 [3]): 3100 nM | IC50 (BaF3 [4]): 163 nM | IC50 (MOLM-13): 436 nM | IC50 (MV4-11): 26 nM | IC50 (BaF3 [5]): 863 nM | IC50 (BaF3 [6]): 3130 nM | IC50 [1]: 34 nM | IC50 [2]: 102 nM | IC50 (BaF3 [7]): 633 nM

Cc1cc(Nc2cc3c(cn2)ncc(=O)n3-c2ccc(N)cc2)ncc1N1CCN(C2CC2)CC1
IC50 (MOLM-13): 366 nM | IC50 (MV4-11): 36 nM | IC50 [1]: 38 nM | IC50 [2]: 103 nM

Cc1cc(Nc2cc3c(cn2)ncc(=O)n3-c2ccc(N)cc2)ncc1N1CCOCC1
IC50 [1]: 11700 nM | IC50 [2]: > 10 nM

CC(=O)N1CCN(c2cnc(Nc3cc4c(cn3)ncc(=O)n4-c3ccc(N)cc3)cc2C)CC1
IC50 [1]: 123 nM | IC50 [2]: 166 nM

Cc1cc(Nc2cc3c(cn2)ncc(=O)n3-c2ccc(N)cc2)ncc1N1CCC(N)CC1
IC50 (MOLM-13): 651 nM | IC50 (MV4-11): 52 nM | IC50 [1]: 42 nM | IC50 [2]: 72 nM

CN1CCN(c2ccc(Nc3ccc4ncc(=O)n(-c5ccc(N)cc5)c4n3)nc2)CC1
IC50 [1]: 6590 nM | IC50 [2]: 2540 nM

CN1CCN(c2ccc(Nc3cc4c(cn3)ncc(=O)n4-c3ccc(NS(C)(=O)=O)cc3)nc2)CC1
IC50 [1]: 685 nM | IC50 [2]: 856 nM

CCN1CCN(c2cnc(Nc3cc4c(cn3)ncc(=O)n4-c3ccc(N)cc3)cc2C)CC1
IC50 (MOLM-13): 230 nM | IC50 (MV4-11): 31 nM | IC50 [1]: 51 nM | IC50 [2]: 102 nM

CC(=O)Nc1ccc(-n2c(=O)cnc3cnc(Nc4ccc(N5CCN(C)CC5)cc4)cc32)cc1
IC50 [1]: 2440 nM | IC50 [2]: 2720 nM

Cc1cc(Nc2cc3c(cn2)ncc(=O)n3-c2ccc(N)cc2)ncc1NC1CCN(C)CC1
IC50 [1]: 343 nM | IC50 [2]: 440 nM

Cc1cc(Nc2cc3c(cn2)ncc(=O)n3-c2ccc(N)cc2)ncc1N1CCC(O)CC1
IC50 [1]: 156 nM | IC50 [2]: 193 nM

Cc1cc(Nc2cc3c(cn2)ncc(=O)n3-c2ccc(N)cc2)ncc1N1CCN(S(C)(=O)=O)CC1
IC50 (MOLM-13): 692 nM | IC50 (MV4-11): 68 nM | IC50 [1]: 89 nM | IC50 [2]: 122 nM

Cc1cc(Nc2cc3c(cn2)ncc(=O)n3-c2ccc(N)cc2)ncc1N1CCN(C)CC1
IC50 (MOLM-13): 254 nM | IC50 (MV4-11): 30 nM | IC50 [1]: 41 nM | IC50 [2]: 50 nM

Cc1cc(Nc2cc3c(cn2)ncc(=O)n3-c2ccc(N)cc2)ncc1N1CCN(C(C)C)CC1
IC50 (Rec1): 3920 nM | IC50 [8]: 1090 nM | IC50 (BaF3 [3]): 131 nM | IC50 (JeKo-1): 1520 nM | inhibition [9]: 100% | inhibition [10]: 100% | IC50 (RS4-11): 1400 nM | IC50 (BaF3 [4]): 8 nM | IC50 (Z-138): 1440 nM | inhibition [11]: Dose-Dependent Effect | IC50 (MOLM-13): 132 nM | IC50 (MV4-11): 15 nM | IC50 (MM1.S): 1580 nM | IC50 (BaF3 [5]): 40 nM | inhibition [12]: Dose-Dependent Effect | IC50 (BaF3 [6]): 136 nM | IC50 (OCI-AML-3): 6440 nM | IC50 (KG-1): 2460 nM | IC50 [1]: 30 nM | IC50 (WI-38): 16600 nM | IC50 [2]: 62 nM | IC50 (MOLT-4): 4330 nM | IC50 (HCC1954): 11600 nM | remaining at 1.5 h, 100 µM [13]: > 80% | inhibition [14]: Dose-Dependent Effect | IC50 (HL-60): 6500 nM | IC50 at 72 h [15]: 3270 nM | inhibition [16]: Active | IC50 (BaF3 [7]): 26 nM

CN1CCN(c2ccc(Nc3cc4c(cn3)ncc(=O)n4-c3ccc(N)cc3)nc2)CC1
IC50 [1]: 653 nM | IC50 [2]: 599 nM

CN1CCN(c2ccc(Nc3ccc4ncc(=O)n(-c5ccc(N)cc5)c4n3)cc2)CC1
IC50 [1]: 6610 nM | IC50 [2]: 3830 nM

CN1CCN(c2ccc(Nc3cc4c(cn3)ncc(=O)n4-c3cccc(N)c3)nc2)CC1
IC50 [1]: 730 nM | IC50 [2]: 915 nM

Cc1cc(Nc2cc3c(cn2)ncc(=O)n3-c2ccc(N)cc2)ncc1N1CCC(F)(F)CC1
IC50 [1]: 120 nM | IC50 [2]: 288 nM

Cc1cc(Nc2cc3c(cn2)ncc(=O)n3-c2ccc(N)cc2)ncc1N1CCSCC1
IC50 (MOLM-13): 881 nM | IC50 (MV4-11): 98 nM | IC50 [1]: 89 nM | IC50 [2]: 185 nM

CN1CCN(c2ccc(Nc3cc4c(cn3)ncc(=O)n4-c3ccc(CN)cc3)nc2)CC1
IC50 [1]: 811 nM | IC50 [2]: 1040 nM

CN1CCN(c2ccc(Nc3cc4c(cn3)ncc(=O)n4-c3ccc(N)cc3)cc2)CC1
IC50 [1]: 2840 nM | IC50 [2]: 2170 nM
